Laboratory results as given in US20140296146A1, “Thermostable Inhibitors of Activation of the Blood Clotting System Through Contact with Foreign Surfaces” (Synapse B.V., priority 2011, published 2014).
Where a SMILES comes first, the peptide text is derived from it. Bridges are numbered along the chain shown (N, C = ends).

How the values were obtained:
h-FXIIa [1] = target: T1, h-FXIIa (Homo sapiens, UniProt P00748); test: Effect of inhibitors on hydrolysis of S2302 by h-FXIIa; assay type: biochemical
T1 construct: purchased Enzyme Research Laboratories FXIIa 1212A
T1 sequence (P00748 373-615 limits assumed): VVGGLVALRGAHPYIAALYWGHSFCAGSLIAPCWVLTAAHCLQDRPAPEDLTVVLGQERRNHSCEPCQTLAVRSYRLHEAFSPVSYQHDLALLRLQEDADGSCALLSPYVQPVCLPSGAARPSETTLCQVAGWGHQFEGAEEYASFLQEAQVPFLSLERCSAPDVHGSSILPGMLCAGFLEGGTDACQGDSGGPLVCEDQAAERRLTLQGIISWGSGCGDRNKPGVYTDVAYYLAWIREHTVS
T1 sequence (P00748 20-372 partner limits assumed): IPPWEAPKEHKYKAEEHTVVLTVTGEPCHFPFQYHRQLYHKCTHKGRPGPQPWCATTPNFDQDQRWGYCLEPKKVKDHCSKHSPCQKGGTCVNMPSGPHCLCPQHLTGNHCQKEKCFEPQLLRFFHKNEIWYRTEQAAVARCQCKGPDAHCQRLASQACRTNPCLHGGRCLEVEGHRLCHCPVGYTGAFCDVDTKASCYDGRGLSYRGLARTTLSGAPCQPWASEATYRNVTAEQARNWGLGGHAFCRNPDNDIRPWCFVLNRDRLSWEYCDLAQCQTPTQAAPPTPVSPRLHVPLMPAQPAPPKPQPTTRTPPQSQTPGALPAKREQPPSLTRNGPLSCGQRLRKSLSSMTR
Procedure: Materials • S2302 From Chromogenic, lot # N0398718 SEQ0860, exp. date 2012-07. Water added on 7 Oct. […] On 3 Aug. […] Product code FXIIa 1212A, lot #FXIIa 2520PL. Bottle with 0.5 mg was reconstituted with 370 μl pure water. […] Buffer 4 mM NaAc, 150 mM NaCl (pH 5.3). Preparation was divided into 20 μl amounts and frozen at −80° C. • Hepes735 140 mM NaCl, 20 mM Hepes, 0.02% NaN3 (pH 7.35). • BSA5 Hepes735+5 mg/ml BSA. • CTI Prepared on 17 Dec. 2004, 0.141 mg/ml, i.e. 0.141/12028=11.7*10^−6 M (11.7 μM). One portion was thawed and divided into 3 parts. Part 1 was frozen at −80° C.; part 2 was kept at RT; and part 3 was incubated 30 min at 95° C. and then kept at RT.
Stock FXIIa was diluted 700× in BSA5. The inhibitor was diluted in BSA5 as indicated. Wells contained 70 μl diluted FXIIa (5 nM final), 70 μl inhibitor and 20 μl S2302 (475 or 462.5 μM final). The reaction was started after 5 min heating on the heating plate with S2302. Filters 405 nm and 490 nm reference. Found mΔA/min was multiplied by 2.14 to get the figure for a 1 cm path.
The residual activity (V) was fitted against the PTI concentration with equation:
(§1) V=(E+(sqrt(Ê2+2*E*(Ki−I)+Î2+2*I*Ki+Kî2)−E−I−Ki)/2)*kcat*S/(Km+S)
(§2) in which E=[FXIIa], Ki is the dissociation constant, I=[Inhibitor], kcat and Km are Michaelis constants and S=[S2302].

contact activation = test: Thrombin generation (CAT) in platelet poor plasma contact activated with kaolin; assay type: biochemical, human; conditions: concentration that prolongs clotting time of kaolin contact activated plasma four times
Procedure: Thrombin generation was carried out according to WO2003/093831.
Following a double centrifugation at 2500×g for 15 min at room temperature, platelet poor plasma (PPP) was collected from the upper half volume of plasma supernatant, quick frozen and stored at −80° C. The absence of platelet and leucocyte in PPP was checked with an ADVIA 120 counter (Bayer Diagnostics, NY, USA).
Recombinant human tissue factor Innovin® was obtained from Dade Behring (Marburg, Germany) and used at a final concentration of 0.5 pM in PRP and 1 or 5 pM in PPP samples. The phospholipid vesicles used at a final concentration of […] were obtained from Avanti Polar Lipids (Alabaster, Ala., USA) and consisted of 20 mol % phosphatidylserine (PS), 20 mol % phosphatidylethanolamine (PE) and 60 mol % phosphatidylcholine (PC) and were prepared by extrusion method (9,10). Kaolin light (hydrated aluminium silicate) was obtained from Baker Harrison ltd, (Ilford, UK).
Hepes-buffered saline contained 20 mM Hepes (Sigma Aldrich, l'Ile d'Abeau Chesnes, France), 140 mM NaCl and 5 mg/mL bovine serum albumin (BSA) (Euromedex, Souffelweyersheim, France), pH 7.35. This buffer was stored at −20° C. until use. A fresh mixture of fluorogenic substrate and CaCl2 was prepared before each experiment. Fluorogenic substrate, Z-Gly-Gly-Arg-AMC, was obtained from Bachem (Bubendorf, Switzerland). The mixture of fluorogenic substrate 2.5 mM and CaCl2 0.1 M was prepared using buffer containing Hepes 20 mM and 60 mg/mL BSA, pH 7.35. The Calibrator with the activity of 600 nM human thrombin was obtained from Thrombinoscope BV (Maastricht, The Netherlands). Transparent, round bottom Greiner microtiter plates (Greiner ref 65204, Poitiers, France) were used.
Thrombin generation was measured using Calibrated Automated Thrombography (CAT) according to the methodology of WO2003/093831 and a 96-well plate fluorometer (Fluoroscan Ascent Reader, Thermolab systems OY, Helsinki, Finland) equipped with a 390/460 nm filter set. Briefly, 80 μL of plasma is dispensed into the wells of round-bottom 96 well-microtiter plates. 20 μL of a mixture containing tissue factor and phospholipids is added to the PPP sample; alternatively, in order to obtain contact activation, the citrated plasma is preincubated for at least 10 min with 1 mg/ml of Kaolin light. The starting reagent (20 μL per well) contains fluorogenic substrate and CaCl2. […] The most important parameters that can be derived from CAT are lag time, endogenous thrombin potential corresponding to the area under the CAT curve, peak height of thrombin and time to peak.

h-FXIIa [2] = target: T1, h-FXIIa; test: Stability of CTI, PTI and TICA at RT and at 95° C., read as inhibition of h-FXIIa; assay type: physicochemical
Procedure: Materials • S2302 From Chromogenic, lot # N0398718 SEQ0860, exp. date 2012-07. Water added on 7 Oct. […] On 3 Aug. […] Product code FXIIa 1212A, lot #FXIIa 2520PL. Bottle with 0.5 mg was reconstituted with 370 μl pure water. […] Buffer 4 mM NaAc, 150 mM NaCl (pH 5.3). Preparation was divided into 20 μl amounts and frozen at −80° C. • Hepes735 140 mM NaCl, 20 mM Hepes, 0.02% NaN3 (pH 7.35). • BSA5 Hepes735+5 mg/ml BSA. • CTI Prepared on 17 Dec. 2004, 0.141 mg/ml, i.e. 0.141/12028=11.7*10^−6 M (11.7 μM). One portion was thawed and divided into 3 parts. […]
Stock FXIIa was diluted 700× in BSA5. The inhibitor was diluted in BSA5 as indicated. Wells contained 70 μl diluted FXIIa (5 nM final), 70 μl inhibitor and 20 μl S2302 (475 or 462.5 μM final). The reaction was started after 5 min heating on the heating plate with S2302. Filters 405 nm and 490 nm reference. Found ΔmA/min was multiplied by 2.14 to get the figure for a 1 cm path.
The residual activity (V) was fitted against the inhibitor concentration with equation:
as §1, §2
To calculate the concentration of I the equation I=x·(x−E−Ki)/(x−E) was used. In this equation is I the calculated inhibitor concentration, x=the residual activity of FXIIa (free FXIIa), E the total FXIIa concentration (=9.33 nM), and Ki the dissociation or inhibitor constant.

[3] = ki F.XIIa (ng/ml), Before heating

Compound: CC[C@H](C)[C@@H]1NC(=O)[C@H](CCCNC(=N)N)NC(=O)[C@@H]2CCCN2C(=O)[C@@H](NC(=O)[C@@H](NC(=O)[C@@H](N)CCCNC(=N)N)C(C)C)CSSC[C@@H]2NC(=O)[C@H](CCC(=O)O)NC(=O)[C@H](C)NC(=O)[C@H](CC(C)C)NC(=O)[C@@H]3CSSC[C@@H](C(=O)NCC(=O)O)NC(=O)[C@H](Cc4ccc(O)cc4)NC(=O)CNC(=O)[C@H](Cc4c[nH]cn4)NC(=O)[C@H](CCC(=O)O)NC(=O)[C@H](CC(C)C)NC(=O)[C@H](CSSC[C@H](NC(=O)[C@H](CCC(=O)O)NC(=O)[C@H](CCSC)NC(=O)[C@H](CC(C)C)NC1=O)C(=O)N[C@@H](CCCCN)C(=O)N[C@@H](CCCCN)C(=O)N[C@@H](CC(=O)O)C(=O)N[C@@H](CO)C(=O)N[C@@H](CC(=O)O)C(=O)N3)NC(=O)[C@H](C(C)C)NC2=O [TICA2] (H-RVCPRILMECKKDSDCLAECVCLEHGYCG-OH; disulfide 3-20, 10-22, 16-28 (inferred); N-terminus and C-terminus assumed)
- Ki (h-FXIIa [1]; Ki, Table 2, inhibitory activity of different polypeptides): 109 nM
- Ki (h-FXIIa [1]; [3]): 109 nM
- 4 × lag-time (ng/ml) (contact activation; After heating): 31.9 ng/mL
- 4 × lag-time (μM) (contact activation; After heating): 9.8 µM
- 4 × lag-time (ng/ml) (contact activation; Before heating): 31.1 ng/mL
- 4 × lag-time (μM) (contact activation; Before heating): 9.6 µM
- Res. Act. (%) (h-FXIIa [2]; inhibitor 30 min 95° C.): 99%
- Res. Act. (%) (h-FXIIa [2]; inhibitor at RT during 72 hrs): 105%
- Res. Act. (%) (h-FXIIa [2]; inhibitor kept at −80° C.): 100%

Compound: CC[C@H](C)[C@@H]1NC(=O)[C@@H]2CSSC[C@H](NC(=O)[C@@H](NC(=O)[C@@H](N)CCCNC(=N)N)C(C)C)C(=O)N3CCC[C@H]3C(=O)N[C@@H](CCCCN)C(=O)N[C@@H]([C@@H](C)CC)C(=O)N[C@@H](CC(C)C)C(=O)N[C@@H](CCSC)C(=O)N[C@@H](CCC(=O)O)C(=O)N[C@H]3CSSC[C@H](NC1=O)C(=O)N[C@@H](CC(C)C)C(=O)N[C@@H](CCC(=O)O)C(=O)N[C@@H](Cc1c[nH]cn1)C(=O)NCC(=O)N[C@@H](Cc1ccc(O)cc1)C(=O)N[C@H](C(=O)NCC(=O)O)CSSC[C@H](NC(=O)[C@H](CC(=O)O)NC(=O)[C@H](CO)NC(=O)[C@H](CC(=O)O)NC(=O)[C@H](CCCCN)NC(=O)[C@H](CCCCN)NC3=O)C(=O)N[C@@H](CC(C)C)C(=O)N[C@@H](C)C(=O)N[C@@H](CCC(=O)O)C(=O)N2 [TICA4] (H-RVCPKILMECKKDSDCLAECICLEHGYCG-OH; disulfide 3-20, 10-22, 16-28 (inferred); N-terminus and C-terminus assumed)
- Ki (h-FXIIa [1]; ki F.XIIa (nM), Before heating): 1420 nM
- Ki (h-FXIIa [1]; [3]): 1420 nM
- 4 × lag-time (ng/ml) (contact activation; After heating): 102.9 ng/mL
- 4 × lag-time (μM) (contact activation; After heating): 31.4 µM
- 4 × lag-time (ng/ml) (contact activation; Before heating): 102.7 ng/mL
- 4 × lag-time (μM) (contact activation; Before heating): 31.6 µM
- Res. Act. (%) (h-FXIIa [2]; inhibitor 30 min 95° C.): 94%
- Res. Act. (%) (h-FXIIa [2]; inhibitor at RT during 72 hrs): 98%
- Res. Act. (%) (h-FXIIa [2]; inhibitor kept at −80° C.): 100%
